IC50 and ED50 data for 8 molecules are collected here from patent publication US5300524A, “Spirocyclic PAF antagonists” (British Bio-Technology Limited, priority 1991, dated 1994).

In one assay the target is T1, PAF receptor (^3 H-PAF binding to human platelet plasma membrane) (Homo sapiens, UniProt P25105).
T1 construct: from tissue; host or cells: human platelets (concentrates from a hospital blood bank), lysed by freeze-thaw, membrane fraction
T1 sequence (P25105 whole entry): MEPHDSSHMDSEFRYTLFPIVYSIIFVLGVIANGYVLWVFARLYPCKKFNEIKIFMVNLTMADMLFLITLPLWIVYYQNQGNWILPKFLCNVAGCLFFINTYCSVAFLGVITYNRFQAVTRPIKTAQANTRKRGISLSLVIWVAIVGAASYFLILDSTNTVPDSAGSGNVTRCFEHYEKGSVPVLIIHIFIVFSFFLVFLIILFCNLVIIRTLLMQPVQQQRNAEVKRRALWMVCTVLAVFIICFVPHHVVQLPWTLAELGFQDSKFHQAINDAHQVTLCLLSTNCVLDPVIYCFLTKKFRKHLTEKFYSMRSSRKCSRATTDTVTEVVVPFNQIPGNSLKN
The assay is described as follows: Inhibition of ^3H-PAF binding to human platelet plasma membrane (isotopic labelling and filtration). Conditions: human platelet membranes, 0.5 nM ^3H-PAF, 1 hour, 0° C.
One may read the IC50 as the concentration at which inhibition is half-maximal. For the molecule `COc1ccc(C2CCC3(O2)C(=O)C(=CCCCCc2cccnc2)CC3c2ccc(OC)c(OC)c2)cc1OC` (stereo not drawn) [Example 11, 1-Oxa-6-oxo-7-(3-pyridylbutyl)methylene-2,9-di(3,4-dimethoxyphenyl)spiro[4,4]nonane], the IC50 was found to be 1 µM.
Molecule `COc1ccc(C2CCC3(O2)C(=O)CCC3c2ccc(OC)c(OC)c2)cc1OC` (single isomer, unassigned) [Example 1A, 1-oxa-6-oxo-2,9-(3,4-dimethoxyphenyl)spiro[4,4]nonane] had an IC50 of 12 µM.
The same measure, in the same setting: the value for `COc1ccc(C2CCC3(O2)C(=O)CCC3c2ccc(OC)cc2)cc1` (stereo not drawn) [Example 18, 1-Oxa-6-oxo-2,9-di(4-methoxyphenyl)spiro[4,4]nonane] was 5 µM.
Same read-out and setting: the value for `COc1ccc(C2CCC3(O2)C(=CC#N)CCC3c2ccc(OC)c(OC)c2)cc1OC` (stereo not drawn) [Example 17, 1-Oxa-6-cyanomethylene-2,9-di(3,4-dimethoxyphenyl)spiro[4,4]nonane] was 1.5 µM; that for `COc1ccc(C2CCC3(O2)C(=O)C(=CCCc2cccnc2)CC3c2ccc(OC)c(OC)c2)cc1OC` (stereo not drawn) [Example 10, 1-Oxa-6-oxo-7-(3-pyridylethyl)methylene-2,9-di(3,4-dimethoxyphenyl)spiro[4,4]nonane] was 1.5 µM; that for `COc1ccc(C2CCC3(O2)C(=O)C(=Cc2cccnc2)CC3c2ccc(OC)cc2)cc1` (stereo not drawn) [Example 19, 1-Oxa-6-oxo-7-(3-pyridyl)methylene-2,9-di(4-methoxyphenyl)spiro[4,4]nonane] was 9 µM.
`COc1ccc(C2CCC3(O2)C(=O)C(=Cc2cccc(Cl)c2)CC3c2ccc(OC)c(OC)c2)cc1OC` (stereo not drawn) [Example 5, 1-Oxa-6-oxo-7-(3-chlorophenyl)methylene-2,9-di(3,4-dimethoxyphenyl)spiro[4,4]nonane] registered an IC50 of 5 µM.
Still for that read-out and setting: the value for `COc1ccc(C2CCC3(O2)C(=O)C(=Cc2cccnc2)CC3c2ccc(OC)c(OC)c2)cc1OC` (stereo not drawn) [Example 2, 1-Oxa-6-oxo-7-(3-pyridyl)methylene-2,9-di(3,4-dimethoxyphenyl)spiro[4,4]nonane] was 3 µM.

For another assay, the system named is PAF-induced hypotension in rats. The assay is described as follows: Reversal of PAF-induced hypotension in the rat. The class given is in vivo. Particulars: iv, anaesthetised male Sprague-Dawley rats, PAF 100 ng.kg^-1 min^-1 i.v. infusion, compound i.v. bolus, read-out: ED50, dose to cause a 50% reversal of the hypotensive PAF response. The protocol:
Compounds of general formula I inhibit PAF-induced functions in both the cellular and tissue levels by changing the PAF binding to its specific receptor site. The ability of compounds of general formula I to inhibit the binding of PAF to its specific receptor binding site on human platelet plasma membranes was measured according to Pharmacological Example 1. The ability of compounds of general formula I to reverse the hypotension caused by an infusion of PAF in rats was measured according to Pharmacology Example 2. […] Male Sprague-Dawley rats (300-350 gms) were anaesthetised with a mixture of sodium pentobarbitone, 22.5 mg.kg^-1 and thiopental 62.5 mg.kg^-1. Through a midline incision in the neck, the trachea was cannulated and the animals breathed spontaneously. A carotid artery was cannulated for the measurement of blood pressure and this signal was used to trigger a rate meter to measure heart rate. Both jugular veins were cannulated: one for the infusion of PAF and the other for the bolus administration of test compounds.
The term ED50 denotes the midpoint of the dose-response relation. Turning to `COc1ccc(C2CCC3(O2)C(=O)C(=Cc2cccnc2)CC3c2ccc(OC)c(OC)c2)cc1OC` (stereo not drawn) [Example 2, 1-Oxa-6-oxo-7-(3-pyridyl)methylene-2,9-di(3,4-dimethoxyphenyl)spiro[4,4]nonane], the ED50 was determined as 0.8 mg/kg.
